The subject of assay [1] is patients with restless leg syndrome (RLS). The experiment in a line: Symptom relief of RLS by pre-treatment (patient history). Type of assay: in vivo, human. Here is the method:
(§1) The patient in this case study was a person showing proximal weakness of the lower limb. […] Upon consultation, they reported no sensory symptoms but complained of a restless leg syndrome at night and during resting periods of the day, occurring over the course of the last eight years. […] Serum creatine kinase activity was mildly elevated at 300 IU/L. Iron measurements and all additional lab investigations were normal. The patient was evaluated using the RLS-DI and the patient's IRLS was 32, and thus a moderate to severe RLS was diagnosed. The patient was started on therapy with acetyl-DL-leucine at a dose of 3 g per day for the first week, followed by a dose of 5 g per day for the second week onwards. Within 14 days on acetyl-DL-leucine, the IRLS dropped to 22, and after another 5 weeks, the IRLS declined to 7. Continuation of treatment over more than 28 weeks stabilized the IRLS score at 8.
(§2) The patient in this case study was a person showing mild proximal weakness of the upper and lower limbs slowly progressive. The patient had been diagnosed (genetically confirmed) with McArdle myopathy about 16 years ago. Upon consultation, they reported no sensory symptoms but complained about a severe fatigue and reduced stamina. The patient further reported a restless leg syndrome at night and during resting periods of the day, occurring over the course of the last 12 years. […] Serum creatine kinase activity was mildly elevated at 200 IU/L; however, the patient had 5 episodes of rhabdomyolysis during the past 20 years. Repeated iron measurements and all additional lab investigations were normal. The patient was evaluated using the RLS-DI and the patient's IRLS was 34, and thus a severe RLS was diagnosed. The patient was started on therapy with acetyl-DL-leucine at a dose of 3 g per day for the first week, followed by a dose of 5 g per day for the second week onwards. Within 21 days on acetyl-DL-leucine, the IRLS dropped to 20, and after another 10 weeks, the IRLS declined to 10. Continuation of treatment over more than 30 weeks stabilized the IRLS score at 10. In addition, the patient's fatigue declined (Fatigue Severit Scale: 9 (minimum) to 63 (maximum)) from 53 to 28.
The patient in this case study was a person showing symptoms of RLS and with RLS of unknown etiology. Upon consultation, they reported no sensory symptoms but complained of a restless leg syndrome at night and during resting periods of the day, occurring over the course of the at least 15 years. […] Iron measurements and all additional lab investigations were normal. The patient was evaluated using the RLS-DI and the patient's IRLS was 32, and thus a moderate to severe RLS was diagnosed. The patient was started on therapy with acetyl-DL-leucine at a dose of 3 g per day for the first week, followed by a dose of 5 g per day for the second week onwards. Within 14 days on acetyl-DL-leucine, the IRLS dropped to 8, and after another 2 weeks, the IRLS declined to 6. Continuation of treatment over more than 4 weeks stabilized the IRLS score at 6.

Assay [2] deals with rat model of an acute unilateral labyrinthectomy. The settings on record: Zwergal 2016, Gunther 2015; cited from earlier work.
Assay [3] relates to patients with restless leg syndrome (RLS). The experiment in a line: International Restless Legs Syndrome Rating Scale score (IRLS) in patient case studies. Type of assay: in vivo, human. Set-up: key: IRLS score, 0 (no symptoms) to 40; >30 very severe.
Excerpt: RLS severity varies and can be measured using one or more of several scales. A widely reported rating scale known as the International Restless Legs Syndrome Study Group Rating Scale (“IRLS”) was developed by the International Restless Legs Syndrome Study Group (“IRLSSG”) (Walters et al., Validation of the 15 International Restless Legs Syndrome Study Group rating scale for restless legs syndrome. Sleep medicine. 2003 Apr 01; 4(2)1 21-32). The IRLS is a 10-item scale with scores ranging from 0 (no symptoms) to 40. Scores>30 are considered very severe, severe (Score 21-30), moderate (scores 11-20) and […], mild. Use of the scale is common for clinical assessment, research and therapeutic trials with RLS.
Serum creatine kinase activity was only mildly elevated at up to 400 IU/L. The patient was evaluated using the RLS diagnostic index (RLS-DI) (see Walters et al., Sleep Med 2003; 4(2):121-132;). The patient's International Restless Legs Syndrome Rating Scale score (IRLS) was 36, and thus a severe RLS was diagnosed. The patient was started on therapy with acetyl-DL-leucine at a dose of 3 g per day for the first week, followed by a dose of 5 g per day for the second week onwards. Within 14 days on acetyl-DL-leucine, the IRLS dropped to 26, and after another 5 weeks, the IRLS declined to 9. […] Re-introduction of the treatment re-declined the score to 8 after 2 weeks. Continuation of treatment over more than 22 weeks stabilized the IRLS score at 8.
as §1, §2
The patient in this case study was a person showing symptoms of RLS and with RLS of unknown etiology. […]

In assay [4] the test system is patient with RLS and McArdle myopathy. The experiment in a line: Fatigue Severity Scale in patient case study. Type of assay: in vivo, human. The settings on record: Patient 3; scale 9 (minimum) to 63 (maximum); declined from 53.
Excerpt: as §2

For assay [5], the system named is patients with cerebellar ataxia / Niemann-Pick Type C. The conditions noted are these: cited from earlier work.
[6] abbreviates: Patient 2, before acetyl-DL-leucine.
The mark [7] stands for this setting: Patient 3, before acetyl-DL-leucine.
The mark [8] stands for this setting: Patient 4, before acetyl-DL-leucine.

With `N[C@@H](Cc1ccc(O)c(O)c1)C(=O)O` [L-dopa], the “RLS symptom relief by pre-treatment” value in assay [1] (setting [6]) is “without sustained symptom relief”; in assay [1] (setting [7]), “without sustained symptom relief”; in assay [1] (setting [8]) it was “without sustained relief”.

`CC(C)C[C@H](CN)CC(=O)O` [pregabaline]: the “RLS symptom relief by pre-treatment” value in assay [1] (setting [6]) is “without sustained symptom relief”; in assay [1] (setting [7]) it was “without sustained symptom relief”; in assay [1] (setting [8]), “without sustained relief”.

Regarding `CC(=O)N[C@@H](CC(C)C)C(=O)O` [N-acetyl-L-leucine], in assay [2], the postural compensation entry was “significant effect”.

In the case of `CC(=O)NC(CC(C)C)C(=O)O` (racemic) [acetyl-DL-leucine], the IRLS in assay [3] (Patient 1, baseline 36, after another 5 weeks on 5 g per day) amounted to 9; in assay [3] (Patient 1, baseline IRLS 36, 3 g per day first week then 5 g per day, within 14 days), 26; in assay [3] (Patient 1, after interruption of 4 weeks of the treatment after week 12), 28; in assay [3] (Patient 1, continuation of treatment over more than 22 weeks), 8; in assay [3] (Patient 1, re-introduction of the treatment, after 2 weeks), 8; in assay [3] (Patient 2, baseline 32, after another 5 weeks), 7. For the same compound, the IRLS in assay [3] (Patient 2, baseline IRLS 32, 3 g per day first week then 5 g per day, within 14 days) is reported as 22; in assay [3] (Patient 2, continuation of treatment over more than 28 weeks), 8; in assay [3] (Patient 3, baseline 34, after another 10 weeks), 10; in assay [3] (Patient 3, baseline IRLS 34, 3 g per day first week then 5 g per day, within 21 days) it was 20; in assay [3] (Patient 3, continuation of treatment over more than 30 weeks), 10; in assay [3] (Patient 4, baseline 32, after another 2 weeks), 6. Moreover, the IRLS is given as 8 in assay [3] (Patient 4, baseline IRLS 32, 3 g per day first week then 5 g per day, within 14 days) and 6 in assay [3] (Patient 4, continuation of treatment over more than 4 weeks). Further, in assay [4], the “Fatigue Severit Scale” value is 28. In assay [5] (PET study in patients with ataxia, Becker-Bense et al. (2015)), the “brain metabolism (PET)” value was “increased metabolism in the midbrain and lower brainstem in responders”. In addition, the cerebellar ataxia benefit result in assay [5] (another case series, Pelz et al. (2015)) is given as “did not find benefit”. Besides, the cerebellar ataxia symptoms entry in assay [5] (case series with cerebellar patients, Strupp et al. (2013)) is “symptomatic improvement of cerebellar ataxia”. Besides, the ataxia symptoms result in assay [5] (one-month study, 12 patients with Niemann-Pick Type C, Bremova et al. (2015)) is given as “symptomatic improvement of ataxia was shown”. The temporal gait variability entry in assay [5] (quantitative gait analysis, patients with cerebellar ataxia, Schniepp et al. (2015)) is recorded as “improved temporal gait variability”.

Source of the values: patent publication US11660279B2, “Therapeutic agents for treating restless leg syndrome” (INTRABIO LTD, priority 2018, dated 2023).
